Values of other authors, collected in PubChem BioAssay AID1259409 (Chemical Carcinogenesis Research Information System (CCRIS), 2018).

Tested on: rodent chemically induced tumor inhibition, incidence and multiplicity
Experiment: CCRIS tumor inhibitor studies
Details: Dose [Inhibitor]: 0, Route [Inhibitor]: ORAL

COc1ccc(-c2cc(=O)c3c(O)cc(O[C@@H]4O[C@H](CO[C@@H]5O[C@@H](C)[C@H](O)[C@@H](O)[C@H]5O)[C@@H](O)[C@H](O)[C@H]4O)cc3o2)cc1O
tumour outcome (control, treated, inhibition, significance) (Carcinogen: 4-NITROQUINOLINE-1-OXIDE, 56-57-5, 1000 PPM IN DIET FOR 10 WK BEGINNING 1 WK PRIOR TO CARCINOGEN TREATMENT (STUDY DURATION: 32 WK), Species: RAT, Strain/Sex: F344/MALE, Target Tissue: Type of Lesion: TONGUE: PAPILLOMA, Dose [Carcinogen]: 20 PPM IN DRINKING WATER FOR 8 WK, Promoter: NONE USED): 8/17 (47%), 1/19 (5%), 89%, p<0.01 | tumour outcome (control, treated, inhibition, significance) (Carcinogen: 4-NITROQUINOLINE-1-OXIDE, 56-57-5, 1000 PPM IN DIET FOR 10 WK BEGINNING 1 WK PRIOR TO CARCINOGEN TREATMENT (STUDY DURATION: 32 WK), Species: RAT, Strain/Sex: R344/MALE, Target Tissue: Type of Lesion: TONGUE: SQUAMOUS CELL CARCINOMA, Dose [Carcinogen]: 20 PPM IN DRINKING WATER FOR 8 WK, Promoter: NONE USED): 11/17 (65%), 4/19 (21%), 68%, p<0.01 | tumour outcome (control, treated, inhibition, significance) (Carcinogen: 4-NITROQUINOLINE-1-OXIDE, 56-57-5, 1000 PPM IN DIET FOR 22 WK BEGINNING 1 WK POST CARCINOGEN TREATMENT (STUDY DURATION: 32 WK), Species: RAT, Strain/Sex: F344/MALE, Target Tissue: Type of Lesion: TONGUE: PAPILLOMA, Dose [Carcinogen]: 20 PPM IN DRINKING WATER FOR 8 WK, Promoter: NONE USED): 8/17 (47%), 2/20 (10%), 79%, p<0.05 | tumour outcome (control, treated, inhibition, significance) (Carcinogen: 4-NITROQUINOLINE-1-OXIDE, 56-57-5, 1000 PPM IN DIET FOR 22 WK BEGINNING 1 WK POST CARCINOGEN TREATMENT (STUDY DURATION: 32 WK), Species: RAT, Strain/Sex: F344/MALE, Target Tissue: Type of Lesion: TONGUE: SQUAMOUS CELL CARCINOMA, Dose [Carcinogen]: 20 PPM IN DRINKING WATER FOR 8 WK, Promoter: NONE USED): 11/17 (65%), 3/20 (15%), 77%, p<0.05 | tumour outcome (control, treated, inhibition, significance) (Carcinogen: AZOXYMETHANE, 25843-45-2, 0.1% IN DIET FOR 4 WK BEGINNING 1 WK PRIOR TO CARCINOGEN TREATMENT (STUDY DURATION: 32 WK), Species: RAT, Strain/Sex: F344/MALE, Target Tissue: Type of Lesion: COLON: ADENOCARCINOMA, Dose [Carcinogen]: 15 MG/KG BW 1/WK FOR 3 WK, Promoter: NONE): 70%, 22%, 69%, p<0.005 | tumour outcome (control, treated, inhibition, significance) (Carcinogen: AZOXYMETHANE, 25843-45-2, 0.1% IN DIET FOR 28 WK BEGINNING 1 WK POST LAST CARCINOGEN DOSE (STUDY DURATION: 32 WK), Species: RAT, Strain/Sex: F344/MALE, Target Tissue: Type of Lesion: COLON: ADENOCARCINOMA, Dose [Carcinogen]: 15 MG/KG BW 1/WK FOR 3 WK, Promoter: NONE): 70%, 5%, 93%, p<0.001 | tumour outcome (control, treated, inhibition, significance) (Carcinogen: AZOXYMETHANE, 25843-45-2, 1000 PPM IN DIET FOR 4 WK BEGINNING 1 WK PRIOR TO CARCINOGEN TREATMENT (STUDY DURATION: 32 WK), Species: RAT, Strain/Sex: F344/MALE, Target Tissue: Type of Lesion: LARGE INTESTINE: TUMOR, Dose [Carcinogen]: 15 MG/KG BW 1/WK FOR 3 WK, Promoter: NONE USED): 12/17 (71%), 5/19 (26%), 63%, p<0.01 | tumour outcome (control, treated, inhibition, significance) (Carcinogen: AZOXYMETHANE, 25843-45-2, 1000 PPM IN DIET FOR 4 WK BEGINNING 1 WK PRIOR TO CARCINOGEN TREATMENT (STUDY DURATION: 32 WK), Species: RAT, Strain/Sex: F344/MALE, Target Tissue: Type of Lesion: SMALL INTESTINE: TUMOR, Dose [Carcinogen]: 15 MG/KG BW 1/WK FOR 3 WK, Promoter: NONE USED): 5/17 (29%), 0/19 (0%), 100%, p<0.05 | tumour outcome (control, treated, inhibition, significance) (Carcinogen: AZOXYMETHANE, 25843-45-2, 1000 PPM IN DIET FOR 28 WK BEGINNING 1 WK POST CARCINOGEN TREATMENT (STUDY DURATION: 32 WK), Species: RAT, Strain/Sex: F344/MALE, Target Tissue: Type of Lesion: LARGE INTESTINE: TUMOR, Dose [Carcinogen]: 15 MG/KG BW 1/WK FOR 3 WK, Promoter: NONE USED): 12/17 (71%), 3/20 (15%), 79%, p<0.001 | tumour outcome (control, treated, inhibition, significance) (Carcinogen: AZOXYMETHANE, 25843-45-2, 1000 PPM IN DIET FOR 28 WK BEGINNING 1 WK POST CARCINOGEN TREATMENT (STUDY DURATION: 32 WK), Species: RAT, Strain/Sex: F344/MALE, Target Tissue: Type of Lesion: SMALL INTESTINE: TUMOR, Dose [Carcinogen]: 15 MG/KG BW 1/WK FOR 3 WK, Promoter: NONE USED): 5/17 (29%), 2/20 (10%), 66%, not significant | tumour outcome (control, treated, inhibition, significance) (Carcinogen: N-BUTYL-N-(4-HYDROXYBUTYL)NITROSAMINE, 3817-11-6, 1000 PPM IN DIET FOR 8 WK BEGINNING 1 WK PRIOR TO CARCINOGEN TREATMENT (STUDY DURATION: 32 WK), Species: MOUSE, Strain/Sex: ICR/MALE, Target Tissue: Type of Lesion: URINARY BLADDER: PAPILLOMA, Dose [Carcinogen]: 500 PPM IN DRINKING WATER FOR 6 WK, Promoter: NONE USED): 5/26 (19%), 4/24 (17%), 11%, not significant | tumour outcome (control, treated, inhibition, significance) (Carcinogen: N-BUTYL-N-(4-HYDROXYBUTYL)NITROSAMINE, 3817-11-6, 1000 PPM IN DIET FOR 8 WK BEGINNING 1 WK PRIOR TO CARCINOGEN TREATMENT (STUDY DURATION: 32 WK), Species: MOUSE, Strain/Sex: ICR/MALE, Target Tissue: Type of Lesion: URINARY BLADDER: TRANSITIONAL CELL CARCINOMA, Dose [Carcinogen]: 500 PPM IN DRINKING WATER FOR 6 WK, Promoter: NONE USED): 16/26 (62%), 5/24 (21%), 66%, p<0.005 | tumour outcome (control, treated, inhibition, significance) (Carcinogen: N-BUTYL-N-(4-HYDROXYBUTYL)NITROSAMINE, 3817-11-6, 1000 PPM IN DIET FOR 24 WK BEGINNING 1 WK POST CARCINOGEN TREATMENT (STUDY DURATION: 32 WK), Species: MOUSE, Strain/Sex: ICR/MALE, Target Tissue: Type of Lesion: URINARY BLADDER: PAPILLOMA, Dose [Carcinogen]: 500 PPM IN DRINKING WATER FOR 6 WK, Promoter: NONE USED): 5/26 (19%), 3/24 (13%), 32%, not significant | tumour outcome (control, treated, inhibition, significance) (Carcinogen: N-BUTYL-N-(4-HYDROXYBUTYL)NITROSAMINE, 3817-11-6, 1000 PPM IN DIET FOR 24 WK BEGINNING 1 WK POST CARCINOGEN TREATMENT (STUDY DURATION: 32 WK), Species: MOUSE, Strain/Sex: ICR/MALE, Target Tissue: Type of Lesion: URINARY BLADDER: TRANSITIONAL CELL CARCINOMA, Dose [Carcinogen]: 500 PPM IN DRINKING WATER FOR 6 WK, Promoter: NONE USED): 16/26 (62%), 2/24 (8%), 87%, p<0.0001 | tumour outcome (control, treated, inhibition, significance) (Carcinogen: N-METHYL-N-AMYLNITROSAMINE, 13256-07-0, 1000 PPM IN DIET FOR 7 WK BEGINNING 1 WK POST CARCINOGEN TREATMENT (STUDY DURATION: 20 WK), Species: RAT, Strain/Sex: WISTAR/MALE, Target Tissue: Type of Lesion: ESOPHAGUS: SQUAMOUS CELL CARCINOMA, Dose [Carcinogen]: 12.5 MG/KG BW 1/WK FOR 12 WK, Promoter: NONE USED): 75%, 39%, 48%, not significant | tumour outcome (control, treated, inhibition, significance) (Carcinogen: N-METHYL-N-AMYLNITROSAMINE, 13256-07-0, 1000 PPM IN DIET FOR 7 WK BEGINNING 1 WK POST CARCINOGEN TREATMENT (STUDY DURATION: 20 WK), Species: RAT, Strain/Sex: WISTAR/MALE, Target Tissue: Type of Lesion: ESOPHAGUS: SQUAMOUS CELL PAPILLOMA, Dose [Carcinogen]: 12.5 MG/KG BW 1/WK FOR 12 WK, Promoter: NONE USED): 100%, 100%, 0%, not significant | tumour outcome (control, treated, inhibition, significance) (Carcinogen: N-METHYL-N-AMYLNITROSAMINE, 13256-07-0, 1000 PPM IN DIET FOR 7 WK BEGINNING 1 WK POST CARCINOGEN TREATMENT (STUDY DURATION: 20 WK), Species: RAT, Strain/Sex: WISTAR/MALE, Target Tissue: Type of Lesion: TONGUE: SQUAMOUS CELL CARCINOMA, Dose [Carcinogen]: 12.5 MG/KG BW 1/WK FOR 12 WK, Promoter: NONE USED): 17%, 0%, 100%, not calculated | tumour outcome (control, treated, inhibition, significance) (Carcinogen: N-METHYL-N-AMYLNITROSAMINE, 13256-07-0, 1000 PPM IN DIET FOR 7 WK BEGINNING 1 WK POST CARCINOGEN TREATMENT (STUDY DURATION: 20 WK), Species: RAT, Strain/Sex: WISTAR/MALE, Target Tissue: Type of Lesion: TONGUE: SQUAMOUS CELL PAPILLOMA, Dose [Carcinogen]: 12.5 MG/KG BW 1/WK FOR 12 WK, Promoter: NONE USED): 33%, 11%, 67%, not calculated | tumour outcome (control, treated, inhibition, significance) (Carcinogen: N-METHYL-N-AMYLNITROSAMINE, 13256-07-0, 1000 PPM IN DIET FOR 13 WK BEGINNING 1 WK PRIOR TO CARCINOGEN TREATMENT (STUDY DURATION: 20 WK), Species: RAT, Strain/Sex: WISTAR/MALE, Target Tissue: Type of Lesion: ESOPHAGUS: SQUAMOUS CELL CARCINOMA, Dose [Carcinogen]: 12.5 MG/KG BW 1/WK FOR 12 WK, Promoter: NONE USED): 75%, 29%, 61%, p<0.05 | tumour outcome (control, treated, inhibition, significance) (Carcinogen: N-METHYL-N-AMYLNITROSAMINE, 13256-07-0, 1000 PPM IN DIET FOR 13 WK BEGINNING 1 WK PRIOR TO CARCINOGEN TREATMENT (STUDY DURATION: 20 WK), Species: RAT, Strain/Sex: WISTAR/MALE, Target Tissue: Type of Lesion: ESOPHAGUS: SQUAMOUS CELL PAPILLOMA, Dose [Carcinogen]: 12.5 MG/KG BW 1/WK FOR 12 WK, Promoter: NONE USED): 100%, 100%, 0%, not significant | tumour outcome (control, treated, inhibition, significance) (Carcinogen: N-METHYL-N-AMYLNITROSAMINE, 13256-07-0, 1000 PPM IN DIET FOR 13 WK BEGINNING 1 WK PRIOR TO CARCINOGEN TREATMENT (STUDY DURATION: 20 WK), Species: RAT, Strain/Sex: WISTAR/MALE, Target Tissue: Type of Lesion: TONGUE: SQUAMOUS CELL CARCINOMA, Dose [Carcinogen]: 12.5 MG/KG BW 1/WK FOR 12 WK, Promoter: NONE USED): 17%, 0%, 100%, not calculated | tumour outcome (control, treated, inhibition, significance) (Carcinogen: N-METHYL-N-AMYLNITROSAMINE, 13256-07-0, 1000 PPM IN DIET FOR 13 WK BEGINNING 1 WK PRIOR TO CARCINOGEN TREATMENT (STUDY DURATION: 20 WK), Species: RAT, Strain/Sex: WISTAR/MALE, Target Tissue: Type of Lesion: TONGUE: SQUAMOUS CELL PAPILLOMA, Dose [Carcinogen]: 12.5 MG/KG BW 1/WK FOR 12 WK, Promoter: NONE USED): 33%, 6%, 82%, not calculated
